What was measured:
[1] = target: GDP-bound NRAS wild-type protein (Homo sapiens, UniProt P01111); assay: Binding to NRAS by surface plasmon resonance (SPR), Single Cycle Kinetics; conditions: KD ratio NRAS/KRAS, class symbols
[2] = target: GDP-bound HRAS wild-type protein (Homo sapiens, UniProt P01112); assay: Binding to HRAS by surface plasmon resonance (SPR), Single Cycle Kinetics; conditions: KD ratio HRAS/KRAS, class symbols
GDP-bound HRAS wild-type protein, sequence (P01112 whole entry): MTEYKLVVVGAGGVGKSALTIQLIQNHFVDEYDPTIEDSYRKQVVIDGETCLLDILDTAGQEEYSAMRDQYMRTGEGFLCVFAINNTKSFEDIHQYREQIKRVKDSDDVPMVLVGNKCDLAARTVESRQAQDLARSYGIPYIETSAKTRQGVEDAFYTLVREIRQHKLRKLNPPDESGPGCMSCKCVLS

GDP-bound NRAS wild-type protein, sequence (P01111 whole entry): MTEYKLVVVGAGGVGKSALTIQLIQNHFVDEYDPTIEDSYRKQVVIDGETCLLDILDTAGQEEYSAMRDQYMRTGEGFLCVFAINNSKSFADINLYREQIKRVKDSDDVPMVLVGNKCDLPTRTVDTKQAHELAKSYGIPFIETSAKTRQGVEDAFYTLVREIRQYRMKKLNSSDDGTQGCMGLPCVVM

| SMILES | NRAS/KRAS (ratio of KD value with respect to GDP-bound NRAS wild-type protein to KD value with respect to KRAS) [1] | HRAS/KRAS (ratio of KD value with respect to GDP-bound HRAS wild-type protein to KD value with respect to KRAS) [2] |
| --- | --- | --- |
| CCC[C@H]1C(=O)N[C@@H]([C@@H](C)CC)C(=O)N(C)CC(=O)N(C)[C@H]2C/C=C\CCN(C2=O)[C@@H](Cc2ccc(C)cc2)C(=O)N(C)CC(=O)N[C@@H](CCc2cc(F)c(C(F)(F)F)c(F)c2)C(=O)N2C[C@H](OCC)C[C@H]2C(=O)NC2(CC(C)(C)C2)C(=O)N(C)[C@@H](CC(C)(C)C)C(=O)N(C)[C@H](C(=O)N(C)C)CC(=O)N1C [PP2706] | A (a compound having 10 or more and less than 20 is denoted as A) | B (a compound having 3 or more and less than 10 is denoted as B) |
| CCCOC[C@H]1C(=O)N[C@@H]([C@@H](C)CC)C(=O)N(C)CC(=O)N(C)[C@H]2C/C=C\CCN(C2=O)[C@@H](Cc2ccc(C)cc2)C(=O)N(C)CC(=O)N[C@@H](CCc2cc(F)c(C(F)(F)F)c(F)c2)C(=O)N2C[C@H](OCC)C[C@H]2C(=O)NC2(CC(C)(C)C2)C(=O)N(C)[C@@H](CC(C)(C)C)C(=O)N(C)[C@H](C(=O)N(C)C)CC(=O)N1C [PP2708] | A (a compound having 10 or more and less than 20 is denoted as A) | A (a compound having 10 or more and less than 20 is denoted as A) |
| CCC[C@H]1C(=O)N[C@@H]([C@@H](C)CC)C(=O)N(C)CC(=O)N(C)[C@H]2C/C=C\CCN(C2=O)[C@@H](Cc2ccc(C)cc2)C(=O)N(C)CC(=O)N[C@@H](CCc2ccc(C(F)(F)F)c(OC)c2)C(=O)N2C[C@H](OCC)C[C@H]2C(=O)NC2(CC(C)(C)C2)C(=O)N(C)[C@@H](CC(C)(C)C)C(=O)N(C)[C@H](C(=O)N(C)C)CC(=O)N1C [PP2710] | B (a compound having 3 or more and less than 10 is denoted as B) | B (a compound having 3 or more and less than 10 is denoted as B) |
| CCCOC[C@H]1C(=O)N[C@@H]([C@@H](C)CC)C(=O)N(C)CC(=O)N(C)[C@H]2C/C=C\CCN(C2=O)[C@@H](Cc2ccc(C)cc2)C(=O)N(C)CC(=O)N[C@@H](CCc2ccc(C(F)(F)F)c(OC)c2)C(=O)N2C[C@H](OCC)C[C@H]2C(=O)NC2(CC(C)(C)C2)C(=O)N(C)[C@@H](CC(C)(C)C)C(=O)N(C)[C@H](C(=O)N(C)C)CC(=O)N1C [PP2712] | A (a compound having 10 or more and less than 20 is denoted as A) | B (a compound having 3 or more and less than 10 is denoted as B) |
| CCC[C@H]1C(=O)N[C@@H]([C@@H](C)CC)C(=O)N(C)CC(=O)N(C)[C@H]2C/C=C\CCN(C2=O)[C@@H](Cc2ccc(C)cc2)C(=O)N(C)CC(=O)N[C@@H](CCc2ccc(Cl)c(Cl)c2)C(=O)N2C[C@H](OCC)C[C@H]2C(=O)NC2(CC(C)(C)C2)C(=O)N(C)[C@@H](CC(C)(C)C)C(=O)N(C)[C@H](C(=O)N(C)C)CC(=O)N1C [PP2714] | A (a compound having 10 or more and less than 20 is denoted as A) | A (a compound having 10 or more and less than 20 is denoted as A) |
| CCCOC[C@H]1C(=O)N[C@@H]([C@@H](C)CC)C(=O)N(C)CC(=O)N(C)[C@H]2C/C=C\CCN(C2=O)[C@@H](Cc2ccc(C)cc2)C(=O)N(C)CC(=O)N[C@@H](CCc2ccc(Cl)c(Cl)c2)C(=O)N2C[C@H](OCC)C[C@H]2C(=O)NC2(CC(C)(C)C2)C(=O)N(C)[C@@H](CC(C)(C)C)C(=O)N(C)[C@H](C(=O)N(C)C)CC(=O)N1C [PP2716] | A (a compound having 10 or more and less than 20 is denoted as A) | A (a compound having 10 or more and less than 20 is denoted as A) |
| CCC[C@H]1C(=O)N[C@@H]([C@@H](C)CC)C(=O)N(C2CC2)CC(=O)N(C)[C@H]2C/C=C\CCN(C2=O)[C@@H](Cc2ccc(C)cc2)C(=O)N(C)CC(=O)N[C@@H](CCc2cc(F)c(C(F)(F)F)c(F)c2)C(=O)N2C[C@H](OCC)C[C@H]2C(=O)NC2(CC(C)(C)C2)C(=O)N(C)[C@@H](CC(C)(C)C)C(=O)N(C)[C@H](C(=O)N(C)C)CC(=O)N1C [PP2718] | A (a compound having 10 or more and less than 20 is denoted as A) | A (a compound having 10 or more and less than 20 is denoted as A) |
| CCOC[C@H]1C(=O)N[C@@H]([C@@H](C)CC)C(=O)N(C2CC2)CC(=O)N(C)[C@H]2C/C=C\CCN(C2=O)[C@@H](Cc2ccc(C)cc2)C(=O)N(C)CC(=O)N[C@@H](CCc2cc(F)c(C(F)(F)F)c(F)c2)C(=O)N2C[C@H](OCC)C[C@H]2C(=O)NC2(CC(C)(C)C2)C(=O)N(C)[C@@H](CC(C)(C)C)C(=O)N(C)[C@H](C(=O)N(C)C)CC(=O)N1C [PP2720] | A (a compound having 10 or more and less than 20 is denoted as A) | A (a compound having 10 or more and less than 20 is denoted as A) |
